In article PMC8533176, “1,5-Benzodiazepin-2(3H)-ones: In Vitro Evaluation as Antiparkinsonian Agents” (Antioxidants, 2021):

Assays:
HepG2 cells = assay: Cytotoxicity, MTT assay, HepG2; type: cell-based; conditions: Homo sapiens, HepG2; MTT, cytotoxicity; read-out: HepG2 IC50
Method: (§1) All compounds tested were dissolved and eventually further diluted in dimethylsulfoxide (DMSO). After overnight incubation, the cells were treated with different compound concentrations (5, 10, 20, 50, 100, 150, 200 µM) in a final volume of 200 µL with four replicates each. […] Cell proliferation or viability was measured using the 3-(4,5-dimethylthiazol-2-yl)-2,5-diphenyl tetrazolium bromide (MTT) assay. The MTT assay was optimized taking into account the number of cells plated per well, to work in the linear part of the cell density vs. MTT absorbance calibration curve, which allows achieving a maximum absorbance in the range of 0.8–1.0 in each well at the end of the experiment. In addition to that, the number of cells seeded for each experiment was optimized in agreement with the time scale of the experiment.
(§2) After cell treatment, 20 µL of MTT (5 mg/mL) was added to each well, and the plate was incubated at 37 °C in the dark for 2 h. Supernatants were removed, and the formazan crystals were solubilized in DMSO (200 µL/well), under 10 min shaking at room temperature. The reduction of MTT was quantified by absorbance at 570 nm in a Varioskan microplate reader (Thermo Fisher Scientific, Vantaa, Finland). Effects of the test compounds on cell viability were calculated using cells treated with a vehicle as a control. For IC50 and LD50 calculations, the data were subjected to linear regression analysis, and the regression lines were plotted for the best fit. The IC50 (inhibition of cell viability) concentrations were calculated using the respective dose–response curves.

SH-SY5Y cells [1] = assay: Neuroprotection in the 6-OHD neurotoxicity-induced model, MTT; type: cell-based, human; conditions: 6-OHD 250 µM 48 h; compounds 24 h before
SH-SY5Y cells [2] = assay: Neuroprotection in the MPP+ neurotoxicity-induced model, MTT; type: cell-based, human; conditions: MPP+ 700 µM 48 h; compounds 24 h before
[3] = Ferric reducing antioxidant power (FRAP) assay; type: biochemical; parameters: FRAP Assay Trolox Equivalents: unit not given here
Method: FRAP reagent was prepared by mixing 10 mL of 300 mM acetate buffer with 1 mL of 10 mM 2,4,6-tripyridyl-S-triazine (TPTZ) in HCl 40 mM and 1mL of FeCl3·6H2O 20 mM. […] Trolox was used as assay control.

[4] = ABTS radical scavenging assay; type: biochemical
Method: The mixture was stored in the dark at room temperature for 16 h. […] All the compounds tested were dissolved in EtOH. […] The degree of decolorization was calculated as the percentage reduction of absorbance. […] Trolox was used as a reference antioxidant.

SH-SY5Y cells [5] = assay: Intracellular ROS levels (DCFH2-DA); type: cell-based, human; conditions: 400 µM H2O2 4 h; compounds 24 h before
Method: Intracellular ROS levels were determined using dichlorofluorescein diacetate (DCFH2-DA) according to Wang et al.. DCFH2-DA is cleaved by intracellular esterases and is oxidized by ROS to form the fluorescent compound DCF, which represents the ROS level. Therefore, 3 × 10^3 SH-SY5Y cells were seeded in 96-well culture black clear bottom plates and after 24 h were treated with the test compound for an additional 24 h. Then, they were exposed to H2O2 for 4 h. After the incubation period, cells were washed twice with Hanks buffer and loaded with 20 µM DCFH2-DA (in FBS-free culture medium) for 40 min in dark at 37 °C in a CO2 incubator. At the end of the dye incubation period, they were washed twice with Hanks buffer to remove the extracellular DCFH2-DA. Fluorescence was measured with a Varioskan microplate reader at λex = 485 nm and λem = 535 nm wavelengths. Results are expressed as a percentage of the fluorescent increase compared with that of the control. All the experiments were performed at least three times in quadruplicate for each compound concentration.

SH-SY5Y cells [6] = assay: Mitochondrial membrane potential (JC-1); type: cell-based, human; conditions: 400 µM H2O2 4 h; compounds 24 h before at different concentrations
Method: The fluorescent dye 5,5′,6,6′-tetrachloro-1,1′,3,3′-tetraethylbenzimidazolylcarbocyanine iodide (JC-1) was used for measuring MMP [89]. A decrease in fluorescence intensity represents mitochondrial membrane depolarization. For fluorescence ratio detection under oxidative stress conditions, 96-well culture black clear bottom plates were seeded with 3 × 10^3 SH-SY5Y cells, and after 24-h incubation, they were treated with the test compound and left out for 24 h. Then, the cells were exposed to different H2O2 concentrations for 4 h. After the incubation period, the cells were washed twice with Hanks buffer and then stained with 5 µM JC-1 in culture media in the dark in a CO2 incubator at 37 °C for 20 min. At the end of the dye incubation period, cells were washed three times with Hanks buffer, and 200 µL of fresh buffer was added. Cells were analyzed with a Varioskan microplate reader. J-aggregate red fluorescence intensity was measured at λex = 535 nm and λem = 595 nm, while λem = 485 nm and λem = 535 nm was used for J-monomer green fluorescence. Results were expressed as the ratio of fluorescence intensity of J-aggregates to J-monomers. All the experiments were performed three times in quadruplicate for each compound concentration.

SH-SY5Y cells [7] = assay: LDH release under H2O2; type: cell-based, human; conditions: H2O2 250 µM 24 h; compounds 24 h before; Figure 9
SH-SY5Y cells [8] = assay: Cytotoxicity, MTT assay, SH-SY5Y; type: cell-based; conditions: Homo sapiens, MTT, cytotoxicity, read-out: SH-SY5Y IC50
Method: as §1, §2

SH-SY5Y cells [9] = assay: Neuroprotection against H2O2-induced oxidative stress, MTT; conditions: H2O2 250 µM 24 h; compounds 5-50 µM 24 h before; Figure 8
[10] = Kinetic solubility by UV spectrometry; type: physicochemical; conditions: PBS 50 mM, aqueous buffer, kinetic from dmso stock
Method: A modified protocol was used from that described by Hoelke et al. for the determination of the kinetic solubility from DMSO compound solutions. A compound calibration curve (compound concentration vs UV absorption) was prepared for each compound with concentrations of 10, 20, 50, 100, and 200 µM. Each compound dilution was carried out by pipetting defined volumes of a 20 mM stock compound solution in DMSO into vials and adding PBS 50 mM to reach a final volume of 1 mL/well. The final amount of DMSO per well was 2%. For the lower compound concentrations, an additional volume of DMSO was added to each well to reach 2% DMSO. Then, 200 µL of each dilution was transferred to a new 96-well culture plate for the measurement of the UV-spectra. One well in each row was left without a compound as a blank, and its UV absorbance was used as an offset correction. The experiments were performed in duplicate.
In parallel, compound saturation solutions were reached and filtered from 20 mM compound stock in DMSO: 10 µL of a 20 mM stock solution was dispensed into 190 µL of PBS 10 mM. The solutions were mixed, shaken on a microplate shaker for two hours, and then 160 µL of each solution was filtered and transferred to a new well plate for UV absorption measurement.
Measurement of the UV-spectra was performed using a Varioskan microplate reader, and spectra were taken in the range of 270–600 nm. Spectral bandwidth was set to 5 nm, and the data pint interval was 10 nm. The experiments were carried out in triplicate.

[11] = Chemical reactivity with H2O2; type: physicochemical; conditions: H2O2 500 µM, 37 °C, 4 h; pH ≥ 7.4
Method: In our case, before running the protection experiments under oxidative stress conditions, we carried out experiments to assess the potential reactivity of compounds 9, 11, 13, and 18 at four different concentrations (5, 10, 20, and 40 µM) with H2O2 500 µM at 37 °C for 4 h in DMEM:F12 (without phenol red, FBS, and cells). Curcumin was used as a control compound.

[12] = previously reported; cited from earlier work
SH-SY5Y cells [13] = assay: Lipid peroxidation (MDA, TBARS); type: cell-based, human; conditions: 250 µM H2O2 24 h; 10 and 20 µM 24 h before
Method: For MDA studies, 2 × 10^5 SH-SY5Y cells were seeded in 6-well culture plates. After 24 h, cells were treated with the test compound and incubated for another 24 h. After compound treatment, cells were exposed to H2O2 for 24 h. Then, the cells were washed twice with cold 50 mM PBS buffer, detached, and lysed with lysis buffer, and TBA was added to each sample tube and vortexed. The reaction mixture was incubated at 96 °C for 60 min. After incubation, samples were cooled and centrifuged 10 min at 10^4 rpm. Samples were dispensed in 96-well culture black clear bottom plates, and fluorescence was measured with a Varioskan microplate reader at λex = 540 nm and λem = 590 nm wavelengths. Protein concentration was measured by the Bradford protein assay. The levels of MDA were expressed as nmol/mg protein. Experiments were performed four times in triplicate.

diffSH-SY5Y cells = assay: Neuroprotection in differentiated SH-SY5Y cells, MTT; type: cell-based, human; conditions: H2O2 500 µM 24 h; 0, 2, 5, 10, 20, and 40 µM 24 h before
SH-SY5Y cells [14] = assay: Mitochondrial superoxide levels (MitoSOX); type: cell-based, human; conditions: H2O2 250 µM; compounds 24 h before
Method: Mitochondrial superoxide levels were measured with MitoSOX red (3,8-phenanthridinediamine, 5-(60-triphenylphosphoniumhexyl)-5,6-dihydro-6-phenyl) from Molecular Probes (Thermo Fisher Scientific, 29851Willow Creek Road, Eugene, OR, USA). After SH-SY5Y cell treatment in 96-well culture black clear bottom plates, the medium was removed and cells were washed with PBS and afterward, MitoSOX red (final concentration of 5 µM) in 200 µL of PBS was added and incubated for 20 min at 37 °C. After incubation, the cells were washed with warm PBS buffer, and fluorescence was measured at 510 nm excitation/640 nm emission wavelengths in a Varioskan microplate reader (Thermo Fisher Scientific, Vantaa, Finland).

[15] = system: Caspase-3 activity in SH-SY5Y cells; assay: Caspase-3 activity; type: cell-based, human; conditions: H2O2 500 µM 4 h; compound 24 h before
Method: Caspase-3 activity was measured using the Abcam fluorimetric kit (ab39383) according to the manufacturer’s instructions. Cells are washed with ice-cold PBS and lysed with lysis buffer. After compound and stressor treatments, SH-SY5Y cells were scraped off from p6 plates and collected in a 1.5 mL Eppendorf vial. The cell suspension was then centrifuged at 9000× g for 10 min at 4 °C. The supernatant was collected and stored at −80 °C for 24 h. Caspase 3 activity was measured as the ability of the cell extract to cleave the […] fluorochrome. The sample’s protein concentration was determined by the Bradford method. The reaction assay was performed by the addition of 50 μL of the cell lysate into the wells of a black 96-well culture plate followed by the addition of 50 μL of 2× reaction buffer containing DTT (10 mM) and caspase-3 substrate DEVD-AFC (final concentration 50 μM). Reagents were mixed by shaking the plate for 2 min at 300 rpm and then incubated at 37 °C for 2 h. Caspase-3 activity was measured as fluorescence intensity in a Varioskan microplate reader at λex = 400 nm and λem = 505 nm wavelengths. Relative fluorescence units (RFU)/mg of protein were calculated, and the fold increase in Caspase-3 activity was compared with that of the control.

COc1cc(C2=Nc3ccccc3NC(=O)C2)cc(OC)c1OC [Compound 20, 4-(3,4,5-Trimethoxyphenyl)-1H-1,5-benzodiazepin-2(3H)-one]
IC50 (HepG2 cells): > 250 µM
Neuroprotection, cell viability (MTT), 6-OHD model (SH-SY5Y cells [1]): significant neuroprotection
Neuroprotection, cell viability (MTT), MPP+ model (SH-SY5Y cells [2]): dose-dependent neuroprotection
FRAP Assay Trolox Equivalents [3]: 0.90
FRAP Assay Antioxidant Capacity (%) at 100 uM ([3]; compound at 100 uM): 48.1%
FRAP Assay Antioxidant Capacity (%) at 200 uM ([3]; compound at 200 uM): 63.8%
IC50 ([4]; 30-min incubation): 269 ± 27.2 µM
ABTS Assay TEAC50 ([4]; Equivalent antioxidant capacity at Trolox 50 mM): 0.34
ABTS Assay TEAC100 ([4]; Equivalent antioxidant capacity at Trolox 100 mM): 0.18
Intracellular ROS level reduction (SH-SY5Y cells [5]): lower ROS decrease
MMP recovery (SH-SY5Y cells [6]): 10–25%
LDH leakage (SH-SY5Y cells [7]): reduced LDH leakage to some degree
IC50 (SH-SY5Y cells [8]): > 250 µM
Neuroprotection effect, cell viability (MTT) (SH-SY5Y cells [9]): significantly improved
solubility [10]: > 200 µM

COc1cc(/C=C/C(=O)CC(=O)/C=C/c2ccc(O)c(OC)c2)ccc1O [Curcumin, reference compound]
concentration decrease in the presence of H2O2 [11]: 30%
water solubility [12]: < 0.6 µg/mL
IC50 (HepG2 cells): 110 ± 9.8 µM
Effect on MDA levels (SH-SY5Y cells [13]): reduction of MDA levels although without statistical significance
Neuroprotection, diffSH-SY5Y cell viability (MTT) (diffSH-SY5Y cells): more irregular activity profile with some toxicity at 40 µM
Reduction in mitochondrial superoxide levels (SH-SY5Y cells [14]): only a clear reduction at 20 µM
Caspase-3 activity reduction [15]: did not show any reduction in caspase-3 activity
Neuroprotection, cell viability (MTT), 6-OHD model (SH-SY5Y cells [1]): did not show any protection
Neuroprotection, cell viability (MTT), MPP+ model (SH-SY5Y cells [2]): did not yield any protection
LDH leakage (SH-SY5Y cells [7]): reduced LDH leakage to some degree
IC50 (SH-SY5Y cells [8]): 48.8 ± 5.1 µM
Neuroprotection effect, cell viability (MTT) (SH-SY5Y cells [9]): only showed slight protection at concentrations 5 and 10 µM
solubility [10]: < 50 µM
